Results: US20140242093A1, “METHODS AND COMPOSITIONS FOR MODULATING THE INNATE IMMUNE RESPONSE AND/OR MYOGENESIS IN A MAMMALIAN SUBJECT” (FRED HUTCHINSON CANCER RESEARCH CENTER, priority 2011, published 2014)

System: control human primary myoblasts
Assay: Expression microarray of primary myoblasts transduced with lentivirus carrying DUX4-fl, DUX4-s or GFP
Experimental: Primary human myoblasts were collected and cultured as previously described (Snider et al., 2010). Primary myoblasts were maintained at or below 70% confluency for proliferation. For differentiation, cells were allowed to reach 95-100% confluency in growth medium. Once confluency was reached, the cells were changed to differentiation medium (F10 media supplemented with 1% horse serum, 10 μg/mL insulin, and 10 μg/mL transferrin, penicillin/streptomycin) and maintained for 4 days. Human RD cells were grown in DMEM in 10% bovine calf serum (Hyclone) and penicillin/streptomycin. The primary myoblasts were transduced with lentivirus carrying DUX-fl, DUX4- or GFP (MOI=15).
Expression microarrays were performed on the transduced cells at 24 hours after transduction as follows. […] Samples were analyzed by Illumina Human Whole Genome microarrays. Probe intensities were corrected, normalized, and summarized by the Lumi package of Bioconductor (Du et al., 2008). Differentially expressed genes were identified by the LIMMA package of Bioconductor (Wettenhall and Smyth, 2004). Gene set enrichment analysis (GSEA) was performed using the Bioconductor GOstats package (Falcon and Gentleman, 2007).

DUX4-fl: full-length DUX4 protein (SEQ ID NO:110), expressed from lentiviral or pCS2 vectors or in vitro translated
fc of ATRIP (expression array) (Refseq NM_032166.2): −1.006
CEP78 expression fc (Refseq NM_032171.1): 2.035
SON expression fc (Refseq NM_032195.1): 2.055
LARP1B expression fc (Refseq NM_032239.2): 1.858
MED10 expression fc (Refseq NM_032286.2): 1.965
C1orf57 fc (Refseq NM_032324.1): −1.117
ELOF1 expression fc (Refseq NM_032377.3): 1.884
fc of C15orf48 (expression array) (Refseq NM_032413.2): −0.8681
PKIB expression fc (Refseq NM_032471.4): 1.858
KBTBD8 expression fc (Refseq NM_032505.1): 3.076
TMEM185A expression fc (Refseq NM_032508.1): 2.292
PARD6G fc (Refseq NM_032510.3): −1.161
fc of EBPL (expression array) (Refseq NM_032565.2): −1.006
fc of ACCS (expression array) (Refseq NM_032592.3): −1.038
RBBP6 expression fc (Refseq NM_032626.5): 1.986
SPRYD5 expression fc (Refseq NM_032681.1): 8.045
fc of SPPL2A (expression array) (Refseq NM_032802.3): −0.7524
ATOH8 expression fc (Refseq NM_032827.4, cultured human skeletal muscle): −2.073
CORO6 fc (Refseq NM_032854.2): −1.12
fc of TIGD5 (expression array) (Refseq NM_032862.2): −1.003
CASP6 expression fc (Refseq NM_032992.2): 2.035
TRIM5 fc (Refseq NM_033034.1): −1.114
EPSTI1 expression fc (Refseq NM_033255.2, cultured human skeletal muscle): −4.12
TP53INP1 fc (Refseq NM_033285.2): −1.138
CASP1 fc (Refseq NM_033294.2): −1.17
PRIC285 expression fc (Refseq NM_033405.2, cultured human skeletal muscle): −2.608
ZNF622 expression fc (Refseq NM_033414.2): 2.406
PANX2 expression fc (Refseq NM_052839.2): 3.831
fc of C20orf72 (expression array) (Refseq NM_052865.2): −1.04
fc of GBP5 (expression array) (Refseq NM_052942.2): −0.9094
fc of ALPK2 (expression array) (Refseq NM_052947.3): −0.3826
fc of ANTXR1 (expression array) (Refseq NM_053034.1): −1.013
AP1S1 fc (Refseq NM_057089.2): −1.095
CCNE1 expression fc (Refseq NM_057182.1): 1.863
FBXO32 fc (Refseq NM_058229.2): −1.177
CCNT2 expression fc (Refseq NM_058241.1): 1.876
SLC44A1 fc (Refseq NM_080546.3): −1.132
fc of C2orf28 (expression array) (Refseq NM_080592.2): −1.029
DYNLL2 expression fc (Refseq NM_080677.1): 2.736
HOM-TES-103 fc (Refseq NM_080731.1): −1.065
ZNF280A expression fc (Refseq NM_080740.3): 3.798
C20orf127 expression fc (Refseq NM_080757.1, cultured human skeletal muscle): −2.098
fc of PTPRA (expression array) (Refseq NM_080841.2): −1.02
ASB5 fc (Refseq NM_080874.2): −1.135
APBB3 expression fc (Refseq NM_133172.2, cultured human skeletal muscle): −1.994
fc of DIS3L (expression array) (Refseq NM_133375.2): −1.005
C6orf117 expression fc (Refseq NM_138409.1): 2.446
fc of SDSL (expression array) (Refseq NM_138432.2): −1.011
TRIM43 expression fc (Refseq NM_138800.1): 5.806
CMBL expression fc (Refseq NM_138809.3, cultured human skeletal muscle): −1.992
fc of FGD4 (expression array) (Refseq NM_139241.1): −0.5592
ANGPTL4 fc (Refseq NM_139314.1): −1.064
MBD3L2 expression fc (Refseq NM_144614.2): 7.623
JSRP1 fc (Refseq NM_144616.2): −1.175
fc of PPM1M (expression array) (Refseq NM_144641.1): −1.015
fc of C1orf58 (expression array) (Refseq NM_144695.2): −0.4075
FXYD5 fc (Refseq NM_144779.1): −1.065
Cllorf82 expression fc (Refseq NM_145018.2): 2.531
CDC42EP5 fc (Refseq NM_145057.2): −1.137
SPATA18 expression fc (Refseq NM_145263.2, cultured human skeletal muscle): −1.989
MOBKL2C fc (Refseq NM_145279.4): −1.106
ZNF296 expression fc (Refseq NM_145288.1): 5.536
fc of MGST1 (expression array) (Refseq NM_145792.1): −1.032
OSBPL7 fc (Refseq NM_145798.2): −1.145
TP53I3 expression fc (Refseq NM_147184.1, cultured human skeletal muscle): −1.961
fc of GJD3 (expression array) (Refseq NM_152219.3): −1.028
ACPL2 fc (Refseq NM_152282.3): −1.079
fc of C1orf131 (expression array) (Refseq NM_152379.2): −1.023
fc of PPM1K (expression array) (Refseq NM_152542.2): −0.146
C12orf50 expression fc (Refseq NM_152589.1): 4.522
C1orf55 expression fc (Refseq NM_152608.3): 2.049
MLKL expression fc (Refseq NM_152649.1, cultured human skeletal muscle): −2.992
ZSCAN4 expression fc (Refseq NM_152677.1): 8.322
SAMD9L expression fc (Refseq NM_152703.2, cultured human skeletal muscle): −2.532
VWCE expression fc (Refseq NM_152718.2, cultured human skeletal muscle): −3.317
fc of D2HGDH (expression array) (Refseq NM_152783.3): −1.031
FAS fc (Refseq NM_152877.1): −1.133
APCDD1 expression fc (Refseq NM_153000.3, cultured human skeletal muscle): −1.894
PMP22 fc (Refseq NM_153321.1): −1.103
SLC2A14 expression fc (Refseq NM_153449.2): 2.374
CYBASC3 expression fc (Refseq NM_153611.3, cultured human skeletal muscle): −1.945
GPBAR1 expression fc (Refseq NM_170699.2): 1.936
NLRX1 fc (Refseq NM_170722.1): −1.167
fc of HSCB (expression array) (Refseq NM_172002.3): −1.009
fc of ZNF650 (expression array) (Refseq NM_172070.2): −1.016
fc of IL4I1 (expression array) (Refseq NM_172374.1): −0.7571
KLF17 expression fc (Refseq NM_173484.3): 1.779
fc of RCOR2 (expression array) (Refseq NM_173587.2): −1.051
fc of DCBLD1 (expression array) (Refseq NM_173674.1): −0.667
WARS expression fc (Refseq NM_173701.1, cultured human skeletal muscle): −1.917
fc of C3orf38 (expression array) (Refseq NM_173824.2): −0.5458
fc of UBR1 (expression array) (Refseq NM_174916.1): −0.08618
fc of C4orf34 (expression array) (Refseq NM_174921.1): −1.044
FRMD3 fc (Refseq NM_174938.3): −1.116
MT1E expression fc (Refseq NM_175617.3, cultured human skeletal muscle): −2.067
TXLNA fc (Refseq NM_175852.3): −1.157
MT1M expression fc (Refseq NM_176870.2, cultured human skeletal muscle): −2.921
PPAP2A fc (Refseq NM_176895.1): −1.106
CSE1L expression fc (Refseq NM_177436.1): 2.937
PPM1B expression fc (Refseq NM_177968.2): 1.831
fc of STARD13 (expression array) (Refseq NM_178006.1): −1.001
RILPL1 fc (Refseq NM_178314.2): −1.072
HIF1A fc (Refseq NM_181054.1): −1.15
ID1 fc (Refseq NM_181353.1): −1.166
C1QTNF3 expression fc (Refseq NM_181435.4): 1.974
PPP2R2B expression fc (Refseq NM_181677.1): 4.13
PPP2R2C fc (Refseq NM_181876.2): −1.064
BCL9L fc (Refseq NM_182557.2): −1.111
fc of IRF2BP2 (expression array) (Refseq NM_182972.2): −1.041
fc of TRIM69 (expression array) (Refseq NM_182985.3): −1.002
fc of TRIM55 (expression array) (Refseq NM_184086.1): −1.053
RBM39 expression fc (Refseq NM_184234.1): 1.8
INO80C expression fc (Refseq NM_194281.3): 1.98
SPTY2D1 expression fc (Refseq NM_194285.2): 3.286
fc of RNASE4 (expression array) (Refseq NM_194431.1): −1.06
BID fc (Refseq NM_197966.1): −1.078
fc of MZF1 (expression array) (Refseq NM_198055.1): −1.004
fc of ARSK (expression array) (Refseq NM_198150.1): −0.8435
fc of SRC (expression array) (Refseq NM_198291.1): −1.041
fc of APOOL (expression array) (Refseq NM_198450.3): −0.5757
DENND2C expression fc (Refseq NM_198459.2): 2.609
TPRX1 expression fc (Refseq NM_198479.2): 4.483
AGRN expression fc (Refseq NM_198576.2, cultured human skeletal muscle): −2.612
C1QTNF1 expression fc (Refseq NM_198594.1, cultured human skeletal muscle): −3.846
fc of SERPINB8 (expression array) (Refseq NM_198833.1): −0.1046
SEMA4B expression fc (Refseq NM_198925.1, cultured human skeletal muscle): −1.94
C9orf169 expression fc (Refseq NM_199001.1, cultured human skeletal muscle): −2.509
T1560 expression fc (Refseq NM_199048.1): 2.769
XAF1 expression fc (Refseq NM_199139.1, cultured human skeletal muscle): −3.622
SAA1 expression fc (Refseq NM_199161.1, cultured human skeletal muscle): −4.138
C20orf117 fc (Refseq NM_199181.2): −1.08
fc of TMEM189-UBE2V1 (expression array) (Refseq NM_199203.1): −1.036
DGKA expression fc (Refseq NM_201554.1, cultured human skeletal muscle): −1.955
fc of ZMYM3 (expression array) (Refseq NM_201599.1): −1.022
FBXO33 expression fc (Refseq NM_203301.1): 3.22
SYNJ1 expression fc (Refseq NM_203446.1): 2.433
fc of CMPK2 (expression array) (Refseq NM_207315.2): −0.8826
CYP4V2 fc (Refseq NM_207352.2): −1.159
fc of C15orf52 (expression array) (Refseq NM_207380.1): −1.016
FLJ45337 expression fc (Refseq NM_207465.1): 3.685
ATP2B1 fc (Refseq NM_001001323.1): −1.082
FLJ45139 expression fc (Refseq NM_001001692.1): 2.451
OR2T34 expression fc (Refseq NM_001001821.1): 4.519
fc of GPM6B (expression array) (Refseq NM_001001995.1): −0.3998
NT5C1B expression fc (Refseq NM_001002006.1): 3.495
fc of NT5C3 (expression array) (Refseq NM_001002010.1): −0.6592
RAB11FIP1 expression fc (Refseq NM_001002814.1): 1.987
fc of LEPR (expression array) (Refseq NM_001003679.1): −1
ZNF705A expression fc (Refseq NM_001004328.1): 6.832
HIST2H3A expression fc (Refseq NM_001005464.2): 4.945
GBA fc (Refseq NM_001005742.1): −1.065
SIAH1 expression fc (Refseq NM_001006610.1): 3.699
OPTN fc (Refseq NM_001008213.1): −1.113
SLC7A2 expression fc (Refseq NM_001008539.2, cultured human skeletal muscle): −2.482
CXCR4 expression fc (Refseq NM_001008540.1): 2.004
fc of CLSTN1 (expression array) (Refseq NM_001009566.1): −1.009
PRAMEF4 expression fc (Refseq NM_001009611.1): 7.06
C6orf191 expression fc (Refseq NM_001010876.1): 2.091
PRAMEF6 expression fc (Refseq NM_001010889.2): 5.826
PRAMEF9 expression fc (Refseq NM_001010890.1): 7.131
PRAMEF8 expression fc (Refseq NM_001012276.1): 3.701
PRAMEF7 expression fc (Refseq NM_001012277.1): 7.631
